Values of other authors as cited in paper PMC6525986 (Theranostics, 2019).

Biological target: protein arginine methyltransferase 5 (PRMT5) (Homo sapiens, UniProt O14744)
Test: PRMT5 enzymatic inhibition assay
Type: biochemical

Chain of protein arginine methyltransferase 5 (PRMT5) (O14744 2-637): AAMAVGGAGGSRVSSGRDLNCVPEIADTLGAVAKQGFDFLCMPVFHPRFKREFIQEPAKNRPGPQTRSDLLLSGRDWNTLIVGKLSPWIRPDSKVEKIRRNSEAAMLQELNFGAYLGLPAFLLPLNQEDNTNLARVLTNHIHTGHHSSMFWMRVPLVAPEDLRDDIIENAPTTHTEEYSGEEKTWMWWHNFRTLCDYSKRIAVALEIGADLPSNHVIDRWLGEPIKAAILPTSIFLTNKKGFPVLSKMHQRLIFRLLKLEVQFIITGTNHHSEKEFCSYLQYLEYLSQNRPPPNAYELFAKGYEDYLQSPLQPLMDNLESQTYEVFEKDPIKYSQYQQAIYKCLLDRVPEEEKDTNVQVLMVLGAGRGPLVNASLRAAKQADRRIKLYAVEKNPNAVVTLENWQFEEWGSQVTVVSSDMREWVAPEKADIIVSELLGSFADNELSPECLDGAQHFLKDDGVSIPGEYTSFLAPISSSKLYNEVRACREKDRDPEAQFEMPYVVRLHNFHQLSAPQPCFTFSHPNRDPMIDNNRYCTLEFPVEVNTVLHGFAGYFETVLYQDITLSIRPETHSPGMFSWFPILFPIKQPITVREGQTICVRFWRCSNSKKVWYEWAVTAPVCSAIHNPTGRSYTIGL

IC50: 0.017 µM
Substance: DW14800 [compound 39]
